Reference: US9833497B2, “Human originated EGF domain proteins and use of the same” (CHENGDU SOURCEBIO LIMITED-LIABILITY COMPANY, priority 2013, dated 2017)

Experiments:
Type in all cases: cell-based
E. coli BL21 = experiment: MIC against Gram-negative bacteria: E. coli BL21; settings: for MIC E. coli BL21 / MIC against E. coli BL21: 5×10^5 CFU/mL
How it was run: (§1)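 MIC = lowest concentration of recombinant protein showing no growth. Test proteins: purified human-derived EGF domain proteins, two-fold dilution series, three wells per concentration; inoculum 5×10^5 CFU/mL in LB; incubation 37° C with shaking at 175 rpm.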

Citrobacter diversus = experiment: MIC against Gram-negative bacteria: Citrobacter diversus; settings: for MIC C. diversus / MIC against C. diversus: 5×10^5 CFU/mL
How it was run: as §1

Klebsiella pneumonia = experiment: MIC against Gram-negative bacteria: Klebsiella pneumonia; settings: for MIC K. pneumonia / MIC against K. pneumonia: 5×10^5 CFU/mL
How it was run: as §1

Pseudomonas aeruginosa = experiment: MIC against Gram-negative bacteria: Pseudomonas aeruginosa; settings: for MIC P. aeruginosa / MIC against P. aeruginosa: 5×10^5 CFU/mL
How it was run: as §1

Aeromonas hydrophila = experiment: MIC against Gram-negative bacteria: Aeromonas hydrophila; settings: for MIC A. hydrophila / MIC against A. hydrophila: 5×10^5 CFU/mL
How it was run: as §1

Proteus mirabilis = experiment: MIC against Gram-negative bacteria: Proteus mirabilis; settings: for MIC P. mirabilis / MIC against P. mirabilis: 5×10^5 CFU/mL
How it was run: as §1

Serratia marcescens = experiment: MIC against Gram-negative bacteria: Serratia marcescens; settings: for MIC S. marcescens / MIC against S. marcescens: 5×10^5 CFU/mL
How it was run: as §1

E. coli DH5α = experiment: Antibacterial activity: MIC and growth curve against E. coli DH5α in 96-well plate; settings: minimal inhibitory concentration against E. coli DH5α; 96-well plate, 5×10^5 CFU/mL, 37° C., judged after 8 h
How it was run: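 Log-phase bacteria (OD600 ~0.5) resuspended in LB at 5×10^5 CFU/mL, exposed to recombinant protein at 50, 25, 12.5 μg/mL final in triplicate, 37 °C shaking at 175 rpm. OD600 read every 30 min; MIC is lowest concentration showing no growth.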

Moraxella catarrhalis = experiment: MIC against Gram-negative bacteria: Moraxella catarrhalis; settings: for MIC M. catarrhalis / MIC against M. catarrhalis: 5×10^5 CFU/mL
How it was run: as §1

Proteus vulgaris = experiment: MIC against Gram-negative bacteria: Proteus vulgaris; settings: for MIC P. vulgaris / MIC against P. vulgaris: 5×10^5 CFU/mL
How it was run: as §1

Enterobacter cloacae = experiment: MIC against Gram-negative bacteria: Enterobacter cloacae; settings: for MIC E. cloacae / MIC against E. cloacae: 5×10^5 CFU/mL
How it was run: as §1

[1] = E. coli BL21, 10 h cultivation at 37° C.
[2] = 10 h cultivation at 37° C., two-fold serial dilution

PRT712 (GSNSCQLNNGGCSQLCLPTSETTRTCMCTVGYYLQKNRMSCQ; listed as Homo sapiens)
MIC E. coli BL21 (E. coli BL21; 96-well plate, 37° C., 10 h): 12.5 µg/mL
MIC C. diversus (Citrobacter diversus; 96-well plate, 37° C., 10 h): 12.5 µg/mL
MIC K. pneumonia (Klebsiella pneumonia; 96-well plate, 37° C., 10 h): 25 µg/mL
MIC P. aeruginosa (Pseudomonas aeruginosa; 96-well plate, 37° C., 10 h): 50 µg/mL
MIC A. hydrophila (Aeromonas hydrophila; 96-well plate, 37° C., 10 h): 25 µg/mL
MIC P. mirabilis (Proteus mirabilis; 96-well plate, 37° C., 10 h): 50 µg/mL
MIC S. marcescens (Serratia marcescens; 96-well plate, 37° C., 10 h): 12.5 µg/mL
MIC (E. coli DH5α): 25 µg/mL
MIC M. catarrhalis (Moraxella catarrhalis; 96-well plate, 37° C., 10 h): 25 µg/mL
MIC P. vulgaris (Proteus vulgaris; 96-well plate, 37° C., 10 h): 25 µg/mL
MIC E. cloacae (Enterobacter cloacae; 96-well plate, 37° C., 10 h): 50 µg/mL

PRT996 (DIDECRSSPCANGGQCQDQPGAFHCKCLPGFEGPRCQ; listed as Homo sapiens)
MIC (E. coli BL21; [1]): 12.5 µg/mL
MIC (Citrobacter diversus; C. diversus, 10 h cultivation at 37° C.): 12.5 µg/mL
MIC (Klebsiella pneumonia; K. pneumonia, 10 h cultivation at 37° C.): 12.5 µg/mL
MIC (Pseudomonas aeruginosa; P. aeruginosa, 10 h cultivation at 37° C.): 25 µg/mL
MIC (Aeromonas hydrophila; A. hydrophila, 10 h cultivation at 37° C.): 100 µg/mL
MIC (Proteus mirabilis; P. mirabilis, 10 h cultivation at 37° C.): 12.5 µg/mL
MIC (Serratia marcescens; S. marcescens, 10 h cultivation at 37° C.): 12.5 µg/mL
MIC (E. coli DH5α): 25 µg/mL
MIC (Moraxella catarrhalis; M. catarrhalis, 10 h cultivation at 37° C.): 25 µg/mL
MIC (Proteus vulgaris; P. vulgaris, 10 h cultivation at 37° C.): 25 µg/mL
MIC (Enterobacter cloacae; E. cloacae, 10 h cultivation at 37° C.): 12.5 µg/mL

PRT1264 (DIDECGNELNGGCVHDCLNIPGNYRCTCFDGFMLAHDGHNCL; listed as Homo sapiens)
MIC against E. coli BL21 (E. coli BL21; E. coli BL21, 96-well plate, 37° C., 10 h): 50 µg/mL
MIC against C. diversus (Citrobacter diversus; Citrobacter diversus, 96-well plate, 37° C., 10 h): 12.5 µg/mL
MIC against K. pneumonia (Klebsiella pneumonia; Klebsiella pneumonia, 96-well plate, 37° C., 10 h): 25 µg/mL
MIC against P. aeruginosa (Pseudomonas aeruginosa; Pseudomonas aeruginosa, 96-well plate, 37° C., 10 h): 12.5 µg/mL
MIC against A. hydrophila (Aeromonas hydrophila; Aeromonas hydrophila, 96-well plate, 37° C., 10 h): 25 µg/mL
MIC against P. mirabilis (Proteus mirabilis; Proteus mirabilis, 96-well plate, 37° C., 10 h): 12.5 µg/mL
MIC against S. marcescens (Serratia marcescens; Serratia marcescens, 96-well plate, 37° C., 10 h): 12.5 µg/mL
MIC (E. coli DH5α): 12.5 µg/mL
MIC against M. catarrhalis (Moraxella catarrhalis; Moraxella catarrhalis, 96-well plate, 37° C., 10 h): 50 µg/mL
MIC against P. vulgaris (Proteus vulgaris; Proteus vulgaris, 96-well plate, 37° C., 10 h): 50 µg/mL
MIC against E. cloacae (Enterobacter cloacae; Enterobacter cloacae, 96-well plate, 37° C., 10 h): 12.5 µg/mL

PRT1354 (RDRQCPRDCSNRGLCVDGQCVCEDGFTGPDCA; listed as Homo sapiens)
MIC against E. coli BL21 (E. coli BL21; [1]): 12.5 µg/mL
MIC against C. diversus (Citrobacter diversus; Citrobacter diversus, 10 h cultivation at 37° C.): 25 µg/mL
MIC against K. pneumonia (Klebsiella pneumonia; Klebsiella pneumonia, 10 h cultivation at 37° C.): 50 µg/mL
MIC against P. aeruginosa (Pseudomonas aeruginosa; Pseudomonas aeruginosa, 10 h cultivation at 37° C.): 25 µg/mL
MIC against A. hydrophila (Aeromonas hydrophila; Aeromonas hydrophila, 10 h cultivation at 37° C.): 12.5 µg/mL
MIC against P. mirabilis (Proteus mirabilis; Proteus mirabilis, 10 h cultivation at 37° C.): 25 µg/mL
MIC against S. marcescens (Serratia marcescens; Serratia marcescens, 10 h cultivation at 37° C.): 25 µg/mL
MIC (E. coli DH5α): 25 µg/mL
MIC against M. catarrhalis (Moraxella catarrhalis; Moraxella catarrhalis, 10 h cultivation at 37° C.): 50 µg/mL
MIC against P. vulgaris (Proteus vulgaris; Proteus vulgaris, 10 h cultivation at 37° C.): 12.5 µg/mL
MIC against E. cloacae (Enterobacter cloacae; Enterobacter cloacae, 10 h cultivation at 37° C.): 25 µg/mL

PRT1133 (KAGPCEQAGSPCRNGGQCQDDQGFALNFTCRCLVGFVGARCE; listed as Homo sapiens)
MIC E. coli BL21 (E. coli BL21; [2]): 12.5 µg/mL
MIC C. diversus (Citrobacter diversus; [2]): 12.5 µg/mL
MIC K. pneumonia (Klebsiella pneumonia; [2]): 12.5 µg/mL
MIC P. aeruginosa (Pseudomonas aeruginosa; [2]): 12.5 µg/mL
MIC A. hydrophila (Aeromonas hydrophila; [2]): 25 µg/mL
MIC P. mirabilis (Proteus mirabilis; [2]): 12.5 µg/mL
MIC S. marcescens (Serratia marcescens; [2]): 12.5 µg/mL
MIC (E. coli DH5α): 12.5 µg/mL
MIC M. catarrhalis (Moraxella catarrhalis; [2]): 25 µg/mL
MIC P. vulgaris (Proteus vulgaris; [2]): 25 µg/mL
MIC E. cloacae (Enterobacter cloacae; [2]): 25 µg/mL

PRT601 (CDCDIGGAYSNVCSPKNGQCECRPHVTGRSCSEPAPGYFFAPLNFYL; listed as Homo sapiens)
MIC E. coli BL21 (E. coli BL21; 96-well plate, 37° C., 10 h): 25 µg/mL
MIC C. diversus (Citrobacter diversus; 96-well plate, 37° C., 10 h): 12.5 µg/mL
MIC K. pneumonia (Klebsiella pneumonia; 96-well plate, 37° C., 10 h): 25 µg/mL
MIC P. aeruginosa (Pseudomonas aeruginosa; 96-well plate, 37° C., 10 h): 12.5 µg/mL
MIC A. hydrophila (Aeromonas hydrophila; 96-well plate, 37° C., 10 h): 25 µg/mL
MIC P. mirabilis (Proteus mirabilis; 96-well plate, 37° C., 10 h): 100 µg/mL
MIC S. marcescens (Serratia marcescens; 96-well plate, 37° C., 10 h): 12.5 µg/mL
MIC (E. coli DH5α): 50 µg/mL
MIC M. catarrhalis (Moraxella catarrhalis; 96-well plate, 37° C., 10 h): 50 µg/mL
MIC P. vulgaris (Proteus vulgaris; 96-well plate, 37° C., 10 h): 50 µg/mL
MIC E. cloacae (Enterobacter cloacae; 96-well plate, 37° C., 10 h): 50 µg/mL

PRT534 (CKCHKAGTVSGTGECRQGDGDCHCKSHVGGDSCDTCEDGYFALEKSNYFGCQG; listed as Homo sapiens)
MIC against E. coli BL21 (E. coli BL21; 96-well plate, 37° C., 10 h): 12.5 µg/mL
MIC against C. diversus (Citrobacter diversus; 96-well plate, 37° C., 10 h): 50 µg/mL
MIC against K. pneumonia (Klebsiella pneumonia; 96-well plate, 37° C., 10 h): 12.5 µg/mL
MIC against P. aeruginosa (Pseudomonas aeruginosa; 96-well plate, 37° C., 10 h): 50 µg/mL
MIC against A. hydrophila (Aeromonas hydrophila; 96-well plate, 37° C., 10 h): 12.5 µg/mL
MIC against P. mirabilis (Proteus mirabilis; 96-well plate, 37° C., 10 h): 25 µg/mL
MIC against S. marcescens (Serratia marcescens; 96-well plate, 37° C., 10 h): 25 µg/mL
MIC (E. coli DH5α): 50 µg/mL
MIC against M. catarrhalis (Moraxella catarrhalis; 96-well plate, 37° C., 10 h): 12.5 µg/mL
MIC against P. vulgaris (Proteus vulgaris; 96-well plate, 37° C., 10 h): 50 µg/mL
MIC against E. cloacae (Enterobacter cloacae; 96-well plate, 37° C., 10 h): 50 µg/mL
